# Values of other authors, collected in patent US20050244367A1 (priority 2004, published 2005).
# System: PLA2
# Details: art-known PLA2 inhibitor classes, order of magnitude given in words
row,SMILES,IC50
1,CCN(CC)CCN(Cc1ccc(-c2ccc(C(F)(F)F)cc2)cc1)C(=O)Cn1cc(Cc2ccn(C)n2)c(=O)nc1SCc1ccc(F)cc1,nM or subnM range
2,CC(C)c1ccc2c(c1)CCC1C(C)(CNCCC(=O)c3ccc(F)cc3)CCCC21C (stereo not shown),μM range
3,CCC(CCCCSc1ccc(C)cc1)c1ccc(F)cc1 (stereo not shown),μM range
4,CC(C)c1ccc2c(c1)CCC1C(C)(CNCCC(N)c3ccc(F)cc3)CCCC21C (stereo not shown),μM range
5,O=C(O)CC[C@@H](CSc1ccc(Cc2ccccc2)cc1)NC(=O)CCCCCCc1ccccc1,sub μM range
6,COC1=CCC2=C(CCC3C2CC[C@@]2(C)C3CC[C@@H]2N(C)CCCN(C)C)C1 (stereo partly shown),sub μM range
7,CCc1c(CC(N)=O)c2cc(OCCCP(=O)(O)O)ccc2n1Cc1ccccc1,sub μM range
